Results reported in patent US5710130A, “Antithrombotic agents” (Eli Lilly and Company, priority 1995, dated 1998).
Counter-ions that a name gives are not always drawn.

Key:
Format in all cases: biochemical
Human Thrombin = Human Thrombin (Homo sapiens, UniProt P00734); test: Inhibition of thrombin amidase activity (Kass), chromogenic substrate; conditions: mean Kass over a range of concentrations; substrate N-benzoyl-Phe-Val-Arg-p-nitroanilide
human plasma [1] = test: Human plasma anticoagulation, thrombin time (TT); conditions: concentration required to double thrombin time, linear extrapolation
Protocol: (§1) Dog plasma and rat plasma is obtained from conscious mixed-breed hounds (either sex, Hazelton-LRE, Kalamazoo, Mich., U.S.A.) or from anesthetized male Sprague-Dawley rats (Harlan Sprague-Dawley, Inc., Indianapolis, Ind., U.S.A.) by venipuncture into 3.8 percent citrate. Fibrinogen is prepared from in-date ACD human blood as the fraction I-2 according to previous procedures and specifications. […] Human fibrinogen is also purchased as 98 percent pure/plasmin free from American Diagnostica, Greenwich, Conn. Coagulation reagents ACTIN, Thromboplastin, and Human plasma are from Baxter Healthcare Corp., Dade Division, Miami, Fla. Bovine thrombin from Parke-Davis ([…], Mich.) is used for coagulation assays in plasma.
(§2) Coagulation assay procedures are as previously described. […] A CoAScreener coagulation instrument (American LABor, Inc.) is used for all coagulation assay measurements. The prothrombin time (PT) is measured by adding 0.05 mL saline and 0.05 mL Thromboplastin-C reagent to 0.05 mL test plasma. The activated partial thromboplastin time (APTT) is measured by incubation of 0.05 mL test plasma with 0.05 mL Actin reagent for 120 seconds followed by 0.05 mL CaCl2 (0.02M). The thrombin time (TT) is measured by adding 0.05 mL saline and 0.05 mL thrombin (10 NIH units/mL) to 0.05 mL test plasma. The compounds of Formula I are added to human or animal plasma over a wide range of concentrations to determine prolongation effects on the APTT, PT, and TT assays. Linear extrapolations are performed to estimate the concentrations required to double the clotting time for each assay.

human plasma [2] = test: Human plasma anticoagulation, prothrombin time (PT); conditions: concentration required to double PT, linear extrapolation
Protocol: as §1, §2

human plasma [3] = test: Human plasma anticoagulation, activated partial thromboplastin time (APTT); conditions: concentration required to double APTT, linear extrapolation
Protocol: as §1, §2

Row | Compound | Kass Human Thrombin (Human Thrombin) | Human Plasma Anticoagulation 2x Clotting time TT (human plasma [1]) | Human Plasma Anticoagulation 2x Clotting time PT (human plasma [2]) | Human Plasma Anticoagulation 2x Clotting time APTT (human plasma [3])
1 | CCS(=O)(=O)N[C@H](CC1CCCCC1)C(=O)N1CCC[C@H]1C(=O)NCCCCN=C(N)N.Cl [Example 2, EtSO2 -D-Cha-Pro-Agm.HCl] | 4.4 × 10^6 (L/mole) | 170 ng/mL |  | 
2 | N=C(N)c1ccc(CNC(=O)[C@@H]2CCCN2C(=O)[C@H]2C[C@H]3CCCC[C@H]3CN2)cc1 [Example 19, D-3-Piq-Pro-p-NHCH2 C6 H4 C(NH)NH2.3HCl] | 11 × 10^6 (L/mole) | 58 ng/mL | 540 ng/mL | 300 ng/mL
3 | Cl.O=C(O)CNC(CC1CCCCC1)C(=O)N1CCCC1C(=O)NCCC1CCNCC1 [Example 54, HO2 CCH2 -D-Cha-Pro-4-NHCH2 CH2 -piperidine.HCl] | 2.8 × 10^6 (L/mole) | 140 ng/mL | 2,200 ng/mL | 3,300 ng/mL
4 | Cl.O=C(O)CN[C@H](CC1CCCCC1)C(=O)N1CCC[C@H]1C(=O)NCC1=CCNCC1 [Example 58, HO2 CCH2 -D-Cha-Pro-4-NHCH2 -3,4-dehydro-piperidine.HCl] | 0.60 × 10^6 (L/mole) | 710 ng/mL |  | 
5 | Cl.O=C(O)CN[C@H](CC1CCCCC1)C(=O)N1CCC[C@H]1C(=O)NCCC1=CCNCC1 [Example 59, HO2 CCH2 -D-Cha-Pro-4-NHCH2 CH2 -3,4-dehydro-piperidine.HCl] | 1.10 × 10^6 (L/mole) | 420 ng/mL | 7,000 ng/mL | 5,500 ng/mL
6 | Cl.O=C(O)CN[C@H](CC1CCCCC1)C(=O)N1CCC[C@H]1C(=O)NCCCC1=CCNCC1 [Example 60, HO2 CCH2 -D-Cha-Pro-4-NHCH2 CH2 CH2 -3,4-dehydro-piperidine.HCl] | 0.24 × 10^6 (L/mole) | 3,200 ng/mL |  | 
7 | Cl.Nc1ccc(CNC(=O)[C@@H]2CCCN2C(=O)[C@@H](CC2CCCCC2)NCC(=O)O)cn1 [Example 74, HO2 CCH2 -D-Cha-Pro-5-NHCH2 -2-aminopyridine.HCl] | 29 × 10^6 (L/mole) | 20 ng/mL | 350 ng/mL | 420 ng/mL
8 | Nc1ccc(CNC(=O)[C@@H]2CCCN2C(=O)[C@@H](CC2CCCCC2)NCC(=O)O)cc1F [Example 77, HO2 CCH2 -D-Cha-pro-4-NHCH2-2-F-aniline.HCl] | 11 × 10^6 (L/mole) | 53 ng/mL | 890 ng/mL | 1,600 ng/mL
9 | NCc1ccc(CNC(=O)[C@@H]2CCCN2C(=O)[C@@H](CC2CCCCC2)NCC(=O)O)cc1 [Example 78, HO2 CCH2 -D-Cha-Pro-4-NHCH2 C6 H4 CH2 NH2.HCl] | 11 × 10^6 (L/mole) | 46 ng/mL | 760 ng/mL | 430 ng/mL
10 | CCS(=O)(=O)N[C@H](CC1CCCCC1)C(=O)N1CCC[C@H]1C(=O)NCc1ccc(C(=N)N)cc1 [Example 80, N-(ethylsulfonyl)-D-cyclohexylalanyl-N-[[4-(aminoiminomethyl)phenyl]methyl]-L-prolinamide hydrochloride] | 1,700 × 10^6 (L/mole) | 4 ng/mL | 130 ng/mL | 40 ng/mL
11 | CCS(=O)(=O)N[C@H](CC1CCCCC1)C(=O)N1CCC[C@H]1C(=O)NCc1ccc(N)cc1F.Cl [Example 82, EtSO2 -D-Cha-Pro-4-NHCH2 -3-F-C6 H3 NH2.HCl] | 5.0 × 10^6 (L/mole) | 130 ng/mL | 3,000 ng/mL | 3,800 ng/mL
12 | CCS(=O)(=O)N[C@H](CC1CCCCC1)C(=O)N1CCC[C@H]1C(=O)NCc1ccnc(N)c1.Cl [Example 83, EtSO2 -D-Cha-Pro-4-NHCH2 -2-aminopyridine.HCl] | 2.4 × 10^6 (L/mole) | 91 ng/mL | 1,300 ng/mL | 1,000 ng/mL
13 | CCS(=O)(=O)N[C@H](CC1CCCCC1)C(=O)N1CCC[C@H]1C(=O)NCc1ccc(N)nc1.Cl [Example 84, EtSO2 -D-Cha-Pro-5-NHCH2 -2-aminopyridine.HCl] | 2.9 × 10^6 (L/mole) | 110 ng/mL | 1,900 ng/mL | 1,500 ng/mL

The next lines start with results.

Row | Kass Human Thrombin (Human Thrombin) | Compound | Human Plasma Anticoagulation 2x Clotting time TT (human plasma [1]) | Human Plasma Anticoagulation 2x Clotting time PT (human plasma [2]) | Human Plasma Anticoagulation 2x Clotting time APTT (human plasma [3])
14 | 2.1 × 10^6 (L/mole) | CCOC(=O)N[C@H](Cc1ccccc1)C(=O)N1CCC[C@H]1C(=O)NCCCCN=C(N)N.Cl [Example 3, EtOCO-D-Phe-Pro-Agm.HCl] | 590 ng/mL |  | 
15 | 0.064 × 10^6 (L/mole) | Cl.NCc1cccc(CNC(=O)[C@@H]2CCCN2C(=O)[C@H](N)Cc2ccccc2)c1 [Example 11, D-Phe-Pro-m-NHCH2 C6 H4 CH2 NH2.HCl] | 8,800 ng/mL |  | 
16 | 0.021 × 10^6 (L/mole) | Cl.Nc1ccc(CCNC(=O)[C@@H]2CCCN2C(=O)[C@H](N)Cc2ccccc2)cc1 [Example 14, D-Phe-Pro-p-NHCH2 CH2 C6 H4 NH2.HCl] | 21,000 ng/mL |  | 
17 | 0.97 × 10^6 (L/mole) | Cl.N=C(N)c1cccc(CNC(=O)[C@@H]2CCCN2C(=O)[C@H](N)Cc2ccccc2)c1 [Example 16, D-Phe-Pro-m-NHCH2 C6 H4 C(NH)NH2.0.75HCl] | 650 ng/mL | 8,500 ng/mL | 8,600 ng/mL
18 | 0.29 × 10^6 (L/mole) | CCS(=O)(=O)N[C@H](Cc1ccccc1)C(=O)N1CCC[C@H]1C(=O)NCCc1cccc(C(=N)N)c1.Cl [Example 27, EtSO2 -D-Phe-Pro-m-NHCH2 CH2 -C6 H4 C(=NH)NH2.HCl] |  | 27,000 ng/mL | 
19 | 0.95 × 10^6 (L/mole) | Cl.Cl.N=C(N)c1ccc(CCNC(=O)[C@@H]2CCCN2C(=O)[C@@H]2NCC[C@@H]3CCCC[C@@H]32)cc1 [Example 28, D-1-Piq-pro-p-NHCH2 CH2 -C6 H4 C(=NH)NH2.2HCl] |  | 8,300 ng/mL | 8,100 ng/mL
20 | 0.76 × 10^6 (L/mole) | Cl.Cl.N=C(N)c1cccc(CCNC(=O)[C@@H]2CCCN2C(=O)[C@@H]2NCC[C@@H]3CCCC[C@@H]32)c1 [Example 29, D-1-Piq-Pro-m-NHCH2 CH2 -C6 H4 C(=NH )NH2.2HCl] |  | 15,000 ng/mL | 9,800 ng/mL
21 | 0.13 × 10^6 (L/mole) | Cl.N=C(N)c1ccc(CCCNC(=O)C2CCCN2C(=O)C2NCCC3CCCCC32)cc1 (stereo not drawn) [Example 32, 1-Piq-Pro-p-NHCH2 CH2 CH2 -C6 H4 C(=NH)NH2.2HCl] | 3,100 ng/mL |  | 
22 | 39 × 10^6 (L/mole) | N=C(N)N1CCC(CCNC(=O)[C@@H]2CCCN2C(=O)[C@@H](CC2CCCCC2)NCC(=O)O)CC1 [Example 57, HO2 CCH2 -D-Cha-Pro-4-NHCH2 CH2 -1-amidinopiperidine.HCl] | 14 ng/mL | 340 ng/mL | 360 ng/mL
23 | 11 × 10^6 (L/mole) | N=C(N)C1CCC(CNC(=O)[C@@H]2CCCN2C(=O)[C@@H](CC2CCCCC2)NCC(=O)O)NC1 (stereo partly drawn) [Example 67, HO2 CCH2 -D-Cha-Pro-2-NHCH2 -5-amidinopiperidine.HCl] | 34 ng/mL | 1,300 ng/mL | 1,800 ng/mL
24 | 28 × 10^6 (L/mole) | Cl.Nc1cc(CNC(=O)[C@@H]2CCCN2C(=O)[C@@H](CC2CCCCC2)NCC(=O)O)ccn1 [Example 73, HO2 CCH2 -D-Cha-Pro-4-NHCH2 -2-aminopyridine.HCl] | 21 ng/mL | 330 ng/mL | 340 ng/mL
25 | 12 × 10^6 (L/mole) | Cl.Nc1cc(CCNC(=O)[C@@H]2CCCN2C(=O)[C@@H](CC2CCCCC2)NCC(=O)O)ccn1 [Example 76, HO2 CCH2 -D-Cha-Pro-4-NHCH2 CH2 -2-aminopyridine.HCl] | 29 ng/mL | 560 ng/mL | 490 ng/mL
